Series [1] is described as follows: logP determination. The format is physicochemical. Conditions: pH 2.3; given in the preparation examples; read-out: log P (pH2.3).
The test system of series [2] is Uromyces appendiculatus. Description: Uromyces test (bean) / protective. The format is in vivo. To be noted: 10ppm active ingredient, bean plants sprayed protectively, evaluated 10 days after inoculation; 0% = control, 100% = no infestation. The source says:
In diesem Test zeigen die erfindungsgemäßen Verbindungen 10, 11, 12 und 13 (siehe Tab.IV) bei einer Konzentration an Wirkstoff von 100ppm einen Wirkungsgrad von 70% oder mehr. Beispiel 3: Uromyces - Test (Bohne) / protektiv
(§1) Zur Herstellung einer zweckmäßigen Wirkstoffzubereitung vermischt man 1 Gewichtsteil Wirkstoff mit den angegebenen Mengen Lösungsmittel und Emulgator und verdünnt das Konzentrat mit Wasser auf die gewünschte Konzentration.
Zur Prüfung auf protektive Wirksamkeit werden junge Pflanzen mit der Wirkstoffzubereitung in der angegebenen Aufwandmenge besprüht. Nach Antrocknen des Spritzbelages werden die Pflanzen mit einer wäßrigen Sporensuspension des Bohnenrosterregers Uromyces appendiculatus inokuliert und verbleiben dann 1 Tag bei ca. 20°C und 100% relativer Luftfeuchtigkeit in einer Inkubations-kabine.
Die Pflanzen werden dann im Gewächshaus bei ca. 21°C und einer relativen Luftfeuchtigkeit von ca. 90% aufgestellt.
(§2) 10 Tage nach der Inokulation erfolgt die Auswertung. Dabei bedeutet 0% ein Wirkungsgrad, der demjenigen der Kontrolle entspricht, während ein Wirkungsgrad von 100% bedeutet, daß kein Befall beobachtet wird.

Series [3] deals with Erysiphe graminis f.sp. hordei. Briefly: Erysiphe test (barley) / protective. The format is in vivo. To be noted: 1000 ppm active ingredient, barley plants sprayed protectively, evaluated 7 days after inoculation; 0% = control, 100% = no infestation.
From the text: Beispiel 4: Erysiphe-Test (Gerste) / protektiv
as §1
Zur Prüfung auf protektive Wirksamkeit besprüht man junge Pflanzen mit der Wirkstoffzubereitung in der angegebenen Aufwandmenge.
Nach Antrocknen des Spritzbelages werden die Pflanzen mit Sporen von Erysiphe graminis f.sp. hordei bestäubt.
Die Pflanzen werden in einem Gewächshaus bei einer Temperatur von ca. 20°C und einer relativen Luftfeuchtigkeit von ca. 80 % aufgestellt, um die Entwicklung von Mehltaupusteln zu begünstigen.
7 Tage nach der Inokulation erfolgt die Auswertung. Dabei bedeutet 0 % ein Wirkungsgrad, der demjenigen der Kontrolle entspricht, während ein Wirkungsgrad von 100 % bedeutet, daß kein Befall beobachtet wird.

Series [4] deals with Alternaria solani. Description: Alternaria test (tomato) / protective. To be noted: 500ppm active ingredient, tomato plants sprayed protectively, inoculated 1 day after treatment, evaluated 7 days after inoculation; 0% = control, 100% = no infestation. The format is in vivo.
From the text: Beispiel 5: Alternaria-Test (Tomate) / protektiv
as §1
Zur Prüfung auf protektive Wirksamkeit bespritzt man junge Tomatenpflanzen mit der Wirkstoffzubereitung in der angegebenen Aufwandmenge. 1 Tag nach der Behandlung werden die Pflanzen mit einer Sporensuspension von Alternaria solani inokuliert und stehen dann 24h bei 100% rel. Feuchte und 20°C. Anschließend stehen die Pflanzen bei 96% rel. Luftfeuchtigkeit und einer Temperatur von 20 °C.
7 Tage nach der Inokulation erfolgt die Auswertung. Dabei bedeutet 0 % ein Wirkungsgrad, der demjenigen der Kontrolle entspricht, während ein Wirkungsgrad von 100 % bedeutet, dass kein Befall beobachtet wird.

The test system of series [5] is Podosphaera leucotricha. Description: Podosphaera test (apple) / protective. The format is in vivo. Conditions: 100ppm active ingredient, apple plants sprayed protectively, evaluated 10 days after inoculation; 0% = control, 100% = no infestation.
From the text: Beispiel 1: Podosphaera-Test (Apfel) / protektiv
as §1
Zur Prüfung auf protektive Wirksamkeit werden junge Pflanzen mit der Wirkstoffzubereitung in der angegebenen Aufwandmenge besprüht. Nach Antrocknen des Spritzbelages werden die Pflanzen mit einer wäßrigen Sporensuspension des Apfelmehltauerregers Podosphaera leucotricha inokuliert. Die Pflanzen werden dann im Gewächshaus bei ca. 23°C und einer relativen Luftfeuchtigkeit von ca. 70% aufgestellt.
as §2

The test system of series [6] is Sphaerotheca fuliginea. Description: Sphaerotheca test (cucumber) / protective. The format is in vivo. To be noted: 100ppm active ingredient, cucumber plants sprayed protectively, evaluated 7 days after inoculation; 0% = control, 100% = no infestation.
From the text: Beispiel 2: Sphaerotheca-Test (Gurke) / protektiv
as §1
Zur Prüfung auf protektive Wirksamkeit werden junge Pflanzen mit der Wirkstoffzubereitung in der angegebenen Aufwandmenge besprüht. Nach Antrocknen des Spritzbelages werden die Pflanzen mit einer wäßrigen Sporensuspension von Sphaerotheca fuliginea inokuliert. Die Pflanzen werden dann bei ca. 23°C und einer relativen Luftfeuchtigkeit von ca. 70% im Gewächshaus aufgestellt.
7 Tage nach der Inokulation erfolgt die Auswertung. Dabei bedeutet 0% ein Wirkungsgrad, der demjenigen der Kontrolle entspricht, während ein Wirkungsgrad von 100% bedeutet, daß kein Befall beobachtet wird.

In the case of `Cc1cc(Oc2ccc3c(c2)CCCC3)c(C)cc1N` [4-(5,6,7,8-Tetrahydro-2-napthoxy)-2,5-dimethylanilin], the logD in series [1] is 3.08.
For the compound `CCN(C)C=Nc1cc(C)c(Oc2ccc3c(c2)CCCC3)cc1C` [Verbindung 13, N-E-thyl-N-methyl-N'-[4-(5,6,7,8-tetrahydro-2-napthoxy)-2,5-dimethylphenyl]form-amidin], the Wirkungsgrad in series [2], in series [3], in series [4], in series [5] and in series [6] was no less than 70% throughout.
Turning to `Cc1cc([N+](=O)[O-])c(C)cc1Oc1ccc2c(c1)CCCC2` [4-(5,6,7,8-Tetrahydro-2-napthoxy)-2,5-dimethylnitrobenzol], in series [1], the logD came out at 5.86.
